The values that follow come from patent EP0615756B1 (priority 1993, dated 1994).

SMILES strings stand for the structures. Where a name gives a salt, the structure may show the parent alone. Read-outs that look alike come from different tables or passages of the source.

A short description of series [1]: Plasma concentration after intramuscular injection (HPLC) in the paw pressure study. The following applies: for half-life: rabbit, plasma, im.
Series [2] relates to New Zealand white rabbits. Nature of the series: Paw pressure test. In kind it is in vivo. Conditions: Figure 20.
Series [3] can be described thus: Percutaneous transport study in modified Franz diffusion cells. Conditions: 37 °C.
A further series concerns Sprague-Dawley rats. The series can be described thus: Rat cold ethanol tail-flick test. The format is in vivo. The following applies: for % Analgesic effect 10% / % Analgesic effect 20% / % Analgesic effect 50%: 25 micromole per kg, intramuscularly.
For series [4] the following is noted: Figure 15; between 17 and 28 hours, p<0.05.
For series [5] the following is noted: cited from earlier work.
Where [6] appears, read: in sesame oil, duration in days.
[7] abbreviates: Anesthesiology, vol.74, 53, 1991.

Turning to `CCCCCCCCCC(=O)Oc1ccc2c3c1O[C@H]1[C@@H](O)CC[C@@]4(O)[C@@H](C2)N(CC2CCC2)CC[C@]314` [nalbuphine decanoate], the half-life (as a rule, the time in which the quantity being followed falls by half) in series [1] ([…]) amounted to 26 h. The “increase of duration compared with nalbuphine hydrochloride” value in series [1] (rabbits, Figure 19) was 30 times. Besides, in series [2] (0.), the “analgesic effect for intramuscular injection (duration)” value worked out at 18 h. In addition, the cumulative amount in series [3] (under 24 hours, 5% nalbuphine decanoate in a jel of 2% CMC Na) came out at 1.04±0.30 µ g/cm^2; in series [3] (under 24 hours, jell containing 10% terpineol (5% nalbuphine decanoate, 2% CMC Na)), 3.31±0.45 µg/cm^2; in series [3] (under 48 hours, 5% nalbuphine decanoate in a jel of 2% CMC Na), 1.67±0.38 µg/cm^2; in series [3] (under 48 hours, jell containing 10% terpineol (5% nalbuphine decanoate, 2% CMC Na)), 5.78±0.81 µ g/cm^2; in series [3] (under 72 hours, 5% nalbuphine decanoate in a jel of 2% CMC Na), 3.17±0.35 µ g/cm^2; in series [3] (under 72 hours, jell containing 10% terpineol (5% nalbuphine decanoate, 2% CMC Na)) it was 9.87±1.44 µg/cm^2. In addition, the “% Analgesic effect 10%” value with Sprague-Dawley rats (setting [6]) stood at 8.2 D. Further, the “% Analgesic effect 20%” value in the series on Sprague-Dawley rats (setting [6]) was 7.5 D. Further, the “% Analgesic effect 50%” value in the series with Sprague-Dawley rats (setting [6]) came out at 6.7 D. The 10% analgesic effect in the series on Sprague-Dawley rats (table 2, longest duration) amounted to 197 h. The molecule further showed a 50% analgesic effect with Sprague-Dawley rats (table 2, longest duration) of 161 h.
Take `O=C(Oc1ccc2c3c1O[C@H]1[C@@H](O)CC[C@@]4(O)[C@@H](C2)N(CC2CCC2)CC[C@]314)c1ccccc1` [nalbuphine benzoate]: in the series on Sprague-Dawley rats (setting [6]), the “% Analgesic effect 10%” value came out at 4.0 D, the “% Analgesic effect 20%” value came to 4.0 D and the “% Analgesic effect 50%” value was 3.5 D.
In series [1], `Oc1ccc2c3c1O[C@H]1[C@@H](O)CC[C@@]4(O)[C@@H](C2)N(CC2CCC2)CC[C@]314` [nalbuphine hydrochloride, reference compound] showed a half-life of 0.85 h. In addition, the “analgesic effect for intramuscular injection (duration)” value in series [2] (10 mg/kg) is 0.75 h. Further, in the series on Sprague-Dawley rats (duration in hours), the “% Analgesic effect 10%” value turned out to be 5.0 H, the “% Analgesic effect 20%” value was determined as 4.4 H and the “% Analgesic effect 50%” value is given as 2.5 H. In the series with Sprague-Dawley rats (rats, intramuscular injection), this molecule had a 10% analgesic effect of 2.4 h and a 20% analgesic effect of 2.1 h. In the series on Sprague-Dawley rats (rats, intramuscular injection, 25 micromole/kg), the “50% analgesic effect” value was 1.1 h. In the series with Sprague-Dawley rats (table 2), this molecule returned a 10% analgesic effect of 12 h and a 50% analgesic effect of 2.5 h.
For the molecule `CCCCCCC(=O)Oc1ccc2c3c1O[C@H]1[C@@H](O)CC[C@@]4(O)[C@@H](C2)N(CC2CCC2)CC[C@]314` [nalbuphine enanthate], in the series with Sprague-Dawley rats (setting [6]), the “% Analgesic effect 10%” value is recorded as 3.6 D, the “% Analgesic effect 20%” value came out at 3.4 D and the “% Analgesic effect 50%” value was 3.0 D.
For the molecule `Oc1ccc2c3c1O[C@H]1[C@@H](O)CC[C@@]4(O)[C@@H](C2)N(CC2CCC2)CC[C@]314` [nalbuphine], the “amount of released nalbuphine free base” value in series [4] was “less in preparations with sesame oil than with peanut oil ester and the control”.
As for `CC(C)(C)C(=O)Oc1ccc2c3c1O[C@H]1[C@@H](O)CC[C@@]4(O)[C@@H](C2)N(CC2CCC2)CC[C@]314` [nalbuphine pivalate], in the series with Sprague-Dawley rats (setting [6]), the “% Analgesic effect 10%” value is 3.8 D, the “% Analgesic effect 20%” value was determined as 3.6 D and the “% Analgesic effect 50%” value came out at 3.2 D.
Consider `CO[C@]12CC[C@@]3(C[C@@H]1[C@](C)(O)C(C)(C)C)[C@H]1Cc4ccc(O)c5c4[C@@]3(CCN1CC1CC1)[C@H]2O5` [buprenorphine], for which, in series [5] (setting [7]), the “dose needed to elicit the same analgesic effect” value (“dose needed” for short) is listed as 0.3 mg.
For `CCC(=O)Oc1ccc2c3c1O[C@H]1[C@@H](O)CC[C@@]4(O)[C@@H](C2)N(CC2CCC2)CC[C@]314` [nalbuphine propionate], in the series with Sprague-Dawley rats (duration in hours), the “% Analgesic effect 10%” value was determined as 12 H, the “% Analgesic effect 20%” value was 11 H and the “% Analgesic effect 50%” value stood at 10 H. For the same molecule, in the series with Sprague-Dawley rats (table 2), the 50% analgesic effect is 10 h.
As to `CN1CC[C@]23c4c5ccc(O)c4O[C@H]2[C@@H](O)C=C[C@H]3[C@H]1C5` [morphine], the “dose needed” value in series [5] (in vivo) was 10 mg.
With `Oc1ccc2c(c1)[C@@]13CCCC[C@@]1(O)[C@@H](C2)N(CC1CCC1)CC3` [butorphanol], the “dose needed” value in series [5] (setting [7]) is recorded as 2 mg.
